Earlier results in patent US8633323B2, “Process for preparing bis(thiohydrazide amides)” (Synta Pharmaceuticals Corp., priority 2008, dated 2014).

Tests used:
[1] = test system: stage 1V metastatic melanoma; conditions: in combination with Taxol, in relation to patients treated with Taxol alone; patients suffering from stage 1V metastatic melanoma
[2] = background statement: effective administration has been challenging

Question: For `CN(NC(=O)CC(=O)NN(C)C(=S)c1ccccc1)C(=S)c1ccccc1` [N-malonyl-bis(N′-methyl-N′-thiobenzoylhydrazide)], which time to progress [1] is on record?
Answer: increase the time to progress

Question: And the solubility [2]?
Answer: low solubility
